Reference: patent publication US12447170B2, “Use of maribavir in treatment regimens” (priority 2021, dated 2025)

Test: PBPK simulation of maribavir with rifampicin
Design: species or system human
Procedure: A comparison of observed and predicted plasma concentrations of maribavir following multiple oral doses of 400 mg administered in the absence of rifampicin and during concurrent treatment with rifampicin was performed. Subjects took maribavir 400 mg BID on Days 1-3 (5 doses), then rifampicin 600 mg QD on Days 4 through 12, followed by both maribavir 400 mg (BID) and rifampicin 600 mg QD on Days 13 and 14, with final doses of maribavir and rifampicin on the morning of Day 15. […]

[1] = maribavir 400 mg BID + rifampicin 600 mg QD
[2] = maribavir 400 mg BID with/without rifampicin 600 mg QD

Structure (SMILES): CC(C)Nc1nc2cc(Cl)c(Cl)cc2n1[C@H]1O[C@@H](CO)[C@H](O)[C@@H]1O [maribavir, (2S,3S,4R,5S)-2-(5,6-dichloro-2-(isopropylamino)-1H-benzo[d]imidazol-1-yl)-5-(hydroxymethyl)tetrahydrofuran-3,4-diol]
- AUC(0-12 h), RATIO GEOMETRIC MEAN PREDICTED/OBSERVED [1]: 0.88
- AUC(0-12 h), RATIO MEAN PREDICTED/OBSERVED [1]: 1.00
- C12 h, RATIO GEOMETRIC MEAN PREDICTED/OBSERVED [1]: 0.22
- C12 h, RATIO MEAN PREDICTED/OBSERVED [1]: 0.83
- Cmax, RATIO GEOMETRIC MEAN PREDICTED/OBSERVED [1]: 0.75
- Cmax, RATIO MEAN PREDICTED/OBSERVED [1]: 0.78
- Ratio AUC(0-12 h), RATIO GEOMETRIC MEAN PREDICTED/OBSERVED [2]: 0.85
- Ratio AUC(0-12 h), RATIO MEAN PREDICTED/OBSERVED [2]: 0.91
- Ratio C12 h, RATIO GEOMETRIC MEAN PREDICTED/OBSERVED [2]: 0.24
- Ratio C12 h, RATIO MEAN PREDICTED/OBSERVED [2]: 0.56
- Ratio Cmax, RATIO GEOMETRIC MEAN PREDICTED/OBSERVED [2]: 0.89
- Ratio Cmax, RATIO MEAN PREDICTED/OBSERVED [2]: 0.87
